assay: Aqueous partition value of a dye (water/1-octanol partitioning); type: physicochemical; details: deionized water / 1-octanol 10.0 mL each, absorbance at dye λmax, (Af/Ai)×100%
Protocol: Dissolve in deionized water to a final volume of 10.0 mL an amount of dye sufficient to provide a solution absorbance value between 0.25 and 1.0, said absorbance being determined at the dye λmax between 400 nm and 750 nm, using a cuvette with 1.0 cm path length. Measure the absorbance of the sample at the dye λmax in a UV/Vis spectrophotometer, then transfer the entire 10.0 mL solution to a 50.0 mL plastic centrifuge tube. Add 10.0 mL of 1-octanol, cap the tube, and mix vigorously for 30 seconds using a Vortex™ mixer. Leave the tube standing undisturbed until the layers cleanly phase separate.
Using a transfer pipette, withdraw an aliquot of the aqueous (bottom) layer and transfer it to a cuvette with 1.0 cm path length for spectrophotometric analysis. Analyze the solution as before, and quantify the absorbance loss at λmax as “% of Dye Remaining in Aqueous Layer” as detailed below: % of Dye Remaining in Aqueous Layer=Aqueous Partition Value (APV)=(Af/Ai)×100% wherein Ai is the initial solution absorbance at λmax and Af is the final solution absorbance at λmax. II. Method for Determining Hueing Efficiency for Detergents • a.) Two 25 cm×25 cm fabric swatches of 16 oz white cotton interlock knit fabric (270 g/square meter, brightened with Uvitex BNB fluorescent whitening agent, from Test Fabrics. P.O. Box 26, Weston, Pa., 18643) are obtained. • b.) Prepare two one liter aliquots of tap water containing 1.55 g of AATCC standard heavy duty liquid (HDL) test detergent. • c.) Add a sufficient amount the dye to be tested to one of the aliquots from Step b.) above to produce an aqueous solution absorbance of 1 AU. • d.) Wash one swatch from a.) above in one of the aliquots of water containing 1.55 g of AATCC standard heavy duty liquid (HDL) test detergent and wash the other swatch in the other aliquot. Such washing step should be conducted for 30 minutes at room temperature with agitation. After such washing step separately rinse the swatches in tap water and air dry the swatches in the dark. • e.) After rinsing and drying each swatch, the hueing efficiency, DE*eff, of the dye is assessed by determining the L*, a*, and b* value measurements of each swatch using a Hunter LabScan XE reflectance spectrophotometer with D65 illumination, 10° observer and UV filter excluded. The hueing efficiency of the dye is then calculated using the following equation: DE*eff=((L*c−Ls)^2+(a*c−a*s)^2+(b*c−b*s)^2)^1/2 • wherein the subscripts c and s respectively refer to the L*, a*, and b* values measured for the control, i.e., the fabric sample washed in detergent with no dye, and the fabric sample washed in detergent containing the dye to be screened. III. Method for Determining Wash Removability • a.) Prepare two separate 150 ml aliquots of HDL detergent solution, according to AATCC Test Method 61-2003, Test 2A and containing 1.55 g/liter of the AATCC HDL formula in distilled water. • b.) A 15 cm×5 cm sample of each fabric swatch from the Method for Determining of Hueing Efficiency For Detergents described above is washed in a Launderometer for 45 minutes at 49° C. in 150 ml of a the HDL detergent solution prepared according to Step 11. a.) above. • c.) The samples are rinsed with separate aliquots of rinse water and air dried in the dark, and then L*, a*, and b* value measurements of each swatch are taken using a Hunter LabScan XE reflectance spectrophotometer with D65 illumination, 10° observer and UV filter excluded. The amount of residual coloration is assessed by measuring the DE*res, calculated using the following equation: DE*res=((L*c−L*s)^2+(a*c−a*s)^2+(b*c−b*s)^2)^1/2 • wherein the subscripts c and s respectively refer to the L*, a*, and b* values measured for the control, i.e., the fabric sample initially washed in detergent with no dye, and the fabric sample initially washed in detergent containing the dye to be screened. The wash removal value for the dye is then calculated according to the formula: % removal=100×(1−DE*res/DE*eff) C. Test Results […]

% Dye in Water Layer (Aqueous Partition Value)	SMILES
75%	COc1cc(/N=N/c2sc(C#N)c(C)c2C#N)c(C)cc1N(CCOCCOCC[N+](C)(C)CCO)CCOCC[N+](C)(C)CCO [Example 21]
56%	COc1cc(/N=N/c2sc(C#N)c(C)c2C#N)c(C)cc1N(CCOCCOCC[N+](CCO)(CCO)CCO)CCOCC[N+](CCO)(CCO)CCO [Example 22]
20%	CCN(CCOCCOCCOCCOCCn1cc[n+](C)c1)c1ccc(/N=N/c2sc(C#N)c(C)c2C#N)c(C)c1 [Example 13]
83%	Cc1cc(N(CCn2cc[n+](C)c2)CCn2cc[n+](C)c2)ccc1/N=N/c1sc(C#N)c(C)c1C#N [Example 2]
49%	CC[N+](CC)(CC)CCOCCOCCN(CCOCC[N+](CC)(CC)CC)c1cc(C)c(/N=N/c2sc(C#N)c(C)c2C#N)cc1OC [Example 18]
15%	CCN(CCOCCOCCOCCOCC[N+](CC)(CC)CC)c1ccc(/N=N/c2sc(C#N)c(C)c2C#N)c(C)c1 [Example 12]
15%	CCN(CC[N+](CC)(CC)CC)c1ccc(/N=N/c2sc(C#N)c(C)c2C#N)c(C)c1 [Example 7]
97%	COc1cc(/N=N/c2sc(C#N)c(C)c2C#N)c(C)cc1N(CCn1cc[n+](C)c1)CCn1cc[n+](C)c1 [Example 1]
94%	CC[N+](CC)(CC)CCN(CC[N+](CC)(CC)CC)c1ccc(/N=N/c2sc(C#N)c(C)c2C#N)c(C)c1 [Example 36]
66%	CC[N+](CC)(CC)CCOCCOCCN(CCOCC[N+](CC)(CC)CC)c1ccc(/N=N/c2sc(C#N)c(C)c2C#N)c(C)c1 [Example 35]
78%	CC[N+](CC)(CC)CCOCCOCCN(CCOCC[N+](CC)(CC)CC)c1cc(OC)c(/N=N/c2sc(C#N)c(C)c2C#N)cc1OC [Example 19]

Reference: US9068081B2, “Thiophene azo dyes and laundry care compositions containing the same” (MILLIKEN & COMPANY, priority 2010, dated 2015)
